From patent US10154991B2, “Anesthetic compounds and related methods of use” (priority 2012, dated 2018) come the findings set out here.

A short description of data set [1]: In vitro metabolic half-life of hypnotics in rat blood. Conditions: rat. It is filed as in vitro ADME. How it is done: On the day of study, whole blood was drawn from the femoral venous catheters of 3 Sprague-Dawley rats (1-2 ml/rat), immediately anticoagulated with heparin (38 U), pooled, and stored on ice. A 1 ml aliquot of blood was warmed at 37° C. for 5 minutes and hypnotic (from a 40 mM in dimethyl sulfoxide stock solution) was added to a final concentration of 100 μM. After the desired incubation time, a 150 μl sample was removed and the metabolic reaction was quenched with 150 μl acetonitrile (Sigma-Aldrich, St. Louis, Mo.). Zero time point samples were prepared by adding 150 μl acetonitrile to blood prior to adding hypnotic (from a 4 mM in dimethyl sulfoxide stock solution). The quenched samples were centrifuged and the resultant supernatant separated and stored at −20° C. until analyzed. Hypnotic concentrations in thawed samples were determined by high performance liquid chromatography using a Varian Prostar system with a 4.6×250 mm Proto 300 C18 column (Nest Group, Southborough, Mass.) with the UV detector set at 240 nm.

A further data set concerns rats. Nature of the data set: loss of righting reflexes (LORR) assay after IV bolus.
For data set [2], the target named is T1, human α1(L264T), β2 and γ2L subunits of the GABAA receptor (Homo sapiens, UniProt P14867+P47870, L291T).
T1 construct: expressed in transfected cells; host or cells: Xenopus oocytes
T1 sequence (P14867 28-456 L291T): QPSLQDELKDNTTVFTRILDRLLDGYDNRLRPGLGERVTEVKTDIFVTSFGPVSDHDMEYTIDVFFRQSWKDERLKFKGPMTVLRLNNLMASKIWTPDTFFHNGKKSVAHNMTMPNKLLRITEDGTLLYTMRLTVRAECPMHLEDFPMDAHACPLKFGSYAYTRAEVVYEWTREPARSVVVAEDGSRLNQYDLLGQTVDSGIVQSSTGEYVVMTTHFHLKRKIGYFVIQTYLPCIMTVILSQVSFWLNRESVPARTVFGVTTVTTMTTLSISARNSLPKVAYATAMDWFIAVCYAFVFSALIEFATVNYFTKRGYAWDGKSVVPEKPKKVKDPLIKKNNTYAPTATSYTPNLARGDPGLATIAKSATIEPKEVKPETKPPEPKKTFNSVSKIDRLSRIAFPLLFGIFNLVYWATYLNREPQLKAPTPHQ
T1 sequence (P47870 25-512 limits assumed): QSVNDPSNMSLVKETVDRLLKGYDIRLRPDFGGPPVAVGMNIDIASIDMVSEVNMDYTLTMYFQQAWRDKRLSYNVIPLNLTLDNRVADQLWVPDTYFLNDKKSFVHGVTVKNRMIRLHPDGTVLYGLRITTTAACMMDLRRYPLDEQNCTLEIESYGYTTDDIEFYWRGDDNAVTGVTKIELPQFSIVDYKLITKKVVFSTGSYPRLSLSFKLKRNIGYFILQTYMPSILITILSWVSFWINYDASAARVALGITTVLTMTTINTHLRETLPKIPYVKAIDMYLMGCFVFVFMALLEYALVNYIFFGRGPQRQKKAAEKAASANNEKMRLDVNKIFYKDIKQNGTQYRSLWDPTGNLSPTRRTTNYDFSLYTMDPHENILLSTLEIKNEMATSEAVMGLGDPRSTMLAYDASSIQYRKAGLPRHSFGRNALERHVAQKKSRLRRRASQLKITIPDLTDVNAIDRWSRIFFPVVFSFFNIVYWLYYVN
T1 sequence (P18507 40-475 partner): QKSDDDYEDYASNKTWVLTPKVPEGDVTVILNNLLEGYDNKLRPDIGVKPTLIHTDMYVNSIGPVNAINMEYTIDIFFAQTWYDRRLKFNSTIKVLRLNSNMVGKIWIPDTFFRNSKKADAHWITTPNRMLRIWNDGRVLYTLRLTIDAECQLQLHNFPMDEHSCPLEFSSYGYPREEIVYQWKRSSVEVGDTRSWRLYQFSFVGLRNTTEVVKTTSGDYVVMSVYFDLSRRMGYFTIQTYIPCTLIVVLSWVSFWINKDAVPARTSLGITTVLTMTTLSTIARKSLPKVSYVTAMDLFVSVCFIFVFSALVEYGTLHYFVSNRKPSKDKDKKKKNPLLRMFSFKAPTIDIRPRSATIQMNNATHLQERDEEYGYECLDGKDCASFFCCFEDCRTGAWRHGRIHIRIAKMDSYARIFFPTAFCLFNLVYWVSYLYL
Put plainly: GABAA receptor current in Xenopus oocytes, 2-electrode voltage clamp. It is filed as cell-based. How it is done: Cyclopropyl-MOC-metomidate induces anesthesia by acting as a positive allosteric modulator of the γ-aminobutyric acid (GABA) type A (GABAA) receptor. Cyclopropyl-MOC-metomidate and its principle metabolite, CPM-acid, were evaluated for their ability to potentiate activation of GABAA receptor current in Xenopus oocytes expressing the human α1(L264T), β2 and γ2L subunits of the GABAA receptor using established methods (Ge et al., 2011). The […] mutant was used rather than wild-type GABAA receptor because it is directly activated by anesthetics, allowing a simpler assessment of the drug potency without the need for concomitant activation by GABA. Anesthetic potency on this mutated GABAA receptor is similar to that on wild-type receptors. Currents were recorded using conventional 2-electrode voltage clamp technique at a holding potential of −50 mV. Oocytes were placed in a 0.04-mL recording chamber and constantly perfused at a rate of 4-6 mL/min. The current response to ABP-700 or CPM-acid was normalized to that produced by 100 μM GABA in the same oocyte and data presented as mean±SD from 3-6 oocytes.

Data set [3] concerns 68 receptors, ion channels and transporters. Put plainly: radioligand binding screen. Conditions: 10 μM, each radioligand.
In a further data set the test system is ICR mice. Nature of the data set: In vivo sedative/hypnotic testing, IV bolus, mice. The following applies: mice. Also noted: species or system mouse.

Procedure for rats: Adult male Sprague-Dawley rats (230-350 gm) were purchased from Charles River Laboratories (Wilmington, Mass.) and housed in the Massachusetts General Hospital Center for Comparative Medicine animal care facility. All drugs were administered through a femoral venous catheter pre-implanted by the vendor prior to animal delivery to our animal care facility.
Immediately after injection, rats were turned supine. […] A stopwatch was used to measure the duration of LORR, which was defined as the time from drug injection until the animal spontaneously righted itself.

As to `COC(=O)C1(OC(=O)c2cncn2[C@H](C)c2ccccc2)CC1` [Cyclopropyl- methoxycarbonyl metomidate, cyclopropyl-methoxycarbonyl metomidate], the half-life at 100 μM in data set [1] (Sprague-Dawley, pooled heparinised whole blood, rat blood, 37° C., 100 μM, read-out: Blood Half-Life (95% CI)) was found to be 34.2 s. In data set [1], the “in vitro metabolic half-life compared with methoxycarbonyl etomidate and etomidate” value was “intermediate between those of methoxycarbonyl etomidate and etomidate”. For the same compound, the ED50 in the data set on rats (Rattus norvegicus, iv, read-out: ED50 ± SD) was 0.69 ± 0.04 mg/kg. Further, in the data set with rats (rat, in vivo), the “hypnotic potency compared with methoxycarbonyl etomidate and etomidate” value was “nearly an order of magnitude higher than that of methoxycarbonyl etomidate and similar to that of etomidate”; the “in vivo duration of action compared with methoxycarbonyl etomidate and etomidate” value is “intermediate between those of methoxycarbonyl etomidate and etomidate”. In addition, in data set [2], the concentration giving a half-maximal response (EC50) worked out at 5.8 ± 1.1 µM and the “concentration having minimal effects on current” value is approximately 0.3 µM. In data set [3], the “inhibition of radioligand binding” value was “no more than 25%”. In the data set with ICR mice, the “slope of duration of LORR vs logarithm of dose” value is “approximately 7”.
